Measured values taken from patent US12319676B2, “Substituted amide compounds useful as farnesoid X receptor modulators” (BRISTOL-MYERS SQUIBB COMPANY, priority 2019, dated 2025).

Target: T1, human FXR (Homo sapiens, UniProt Q96RI1)
T1 construct: expressed in transfected cells; host or cells: HEK293 cells stably carrying a 5xGal4 response element-luciferase reporter, transiently transfected with pcDNA3.1-Gal4-FXR
T1 sequence (Q96RI1 262-486 limits assumed): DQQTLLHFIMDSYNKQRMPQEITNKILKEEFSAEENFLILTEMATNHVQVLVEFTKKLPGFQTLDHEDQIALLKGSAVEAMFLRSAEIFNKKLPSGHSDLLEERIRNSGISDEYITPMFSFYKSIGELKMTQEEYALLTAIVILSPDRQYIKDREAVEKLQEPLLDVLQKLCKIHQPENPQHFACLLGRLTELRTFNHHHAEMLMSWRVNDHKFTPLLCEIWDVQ
Assay: transient human FXR/Gal4-luciferase reporter assay
Type: cell-based
Details: Gal4-hFXR fusion construct, luciferase reporter in HEK293 cells; overnight incubation; response as percentage of 8 μM GW-4064 control
Method: The exemplified compounds of the present invention were tested in the transient human FXR/Gal4-luciferase reporter assay, and assay results were reported in Table 1 and Examples 1 to 3 together with other analytical data. A Gal4-hFXR fusion construct reporter system was used as the primary assay to characterize compound activity. A construct including 5 copies of the Gal4 promoter response element upstream of a firefly luciferase reporter cDNA was stably expressed in HEK293 cells. This reporter cell line was maintained in Dulbecco's Modified Eagle's medium (DMEM; Gibco) supplemented with 1% penicillin-streptomycin (P/S) solution, 500 μg/mL Zeocin and 10% charcoal/dextran-treated fetal bovine serum (cs-FBS) at 37° C. in a humidified 5% CO2 atmosphere. Another plasmid was constructed in which the human cytomegalovirus promoter in the pcDNA3.1 vector directs the expression of the cDNA encoding a fusion protein comprised of the DNA binding domain from the Gal4 transcription factor fused to the ligand binding domain from human FXR. The day prior to transfection, the reporter cells in culture are detached from the plate with trypsin and plated into a T75 flask at a sufficient density to achieve approximately 90% confluence the next morning. The transfection reagents are prepared by separately diluting 25 μg of the pcDNA3.1-Gal4-FXR plasmid into 1.87 mL of Opti-MEM (Thermo-Fisher), and 40 μL of Lipofectamine 2000 (Thermo-Fisher) into 1.87 mL of Opti-MEM, and then adding the diluted DNA solution into the diluted Lipofectamine 2000 solution and incubating at room temperature for 15-20 minutes. The mixture is further diluted with 10 mL of a solution comprised of DMEM, 10% cs-FBS, and 1% P/S immediately prior to transferring to the cells. The maintenance culture media is aspirated from the cells and the final transfection mixture is added before the cells are incubated overnight at 37° C. in a humidified 5% CO2 atmosphere. This protocol can be scaled up, and the transiently transfected cells can be cryopreserved in an assay-ready format. For compound testing, 100 nL of the compounds (serial dilutions in DMSO) are dispensed with an Echo acoustic dispenser (Labcyte) into the wells of a Corning/Costar clear bottom 384-well white plate. The transfected cells are harvested, counted, and diluted such that 10-25,000 cells in 25 μL are plated into each well of the 384-well compound assay plate. The compound-treated cells are incubated overnight at 37° C. in a humidified 5% CO2 atmosphere. The next morning 25 μL of Steady-Glo (Promega) are added to each well of the plate, the mixture is incubated for 15 min. with shaking, and luminescence is measured on an Envision (Perkin Elmer) plate reader. Background counts from cells treated with DMSO alone are subtracted from all raw counts, and the corrected values are converted to a percentage of the control response attained with 8 μM GW-4064.

| EC50 [µM] | Compound |
| --- | --- |
| 0.171 | CC(C)(C)c1noc(C23CCC(CN(C(=O)C4CC(F)(F)C4)c4cccc(C#N)c4)(CC2)CC3)n1 [Example 41, N-((4-(3-(tert-butyl)-1,2,4-oxadiazol-5-yl)bicyclo[2.2.2]octan-1-yl)methyl)-N-(3-cyanophenyl)-3,3-difluorocyclobutane-1-carboxamide] |
| 1.25 | CC(C)(C)c1noc(C23CCC(CN(C(=O)C4CCC(F)(F)CC4)c4cccc(C#N)c4)(CC2)CC3)n1 [Example 42, N-((4-(3-(tert-butyl)-1,2,4-oxadiazol-5-yl)bicyclo[2.2.2]octan-1-yl)methyl)-N-(3-cyanophenyl)-4,4-difluorocyclohexane-1-carboxamide] |
| 4 | CC(C)(C)c1noc(C23CCC(CN(C(=O)C45CC(F)(C4)C5)c4cccc(P(C)(C)=O)c4)(CC2)CC3)n1 [Example 43, N-((4-(3-(tert-butyl)-1,2,4-oxadiazol-5-yl)bicyclo[2.2.2]octan-1-yl)methyl)-N-(3-(dimethylphosphoryl)phenyl)-3-fluorobicyclo[1.1.1]pentane-1-carboxamide] |
| 4 | CC(C)(C)c1noc(C23CCC(CN(C(=O)C4CC(F)(F)C4)c4cccc(P(C)(C)=O)c4)(CC2)CC3)n1 [Example 44, N-((4-(3-(tert-butyl)-1,2,4-oxadiazol-5-yl)bicyclo[2.2.2]octan-1-yl)methyl)-N-(3-(dimethylphosphoryl)phenyl)-3,3-difluorocyclobutane-1-carboxamide] |
| 4 | CC(C)(C)c1noc(C23CCC(CN(c4cccc(P(C)(C)=O)c4)C(=O)[C@H]4C[C@](O)(C(F)(F)F)C4)(CC2)CC3)n1 [Example 45, (1S,3S)-N-((4-(3-(tert-butyl)-1,2,4-oxadiazol-5-yl)bicyclo[2.2.2]octan-1-yl)methyl)-N-(3-(dimethylphosphoryl)phenyl)-3-hydroxy-3-(trifluoromethyl)cyclobutane-1-carboxamide] |
| 4 | CC(C)(C)c1noc(C23CCC(CN(C(=O)C4CCOCC4)c4cccc(P(C)(C)=O)c4)(CC2)CC3)n1 [Example 46, N-((4-(3-(tert-butyl)-1,2,4-oxadiazol-5-yl)bicyclo[2.2.2]octan-1-yl)methyl)-N-(3-(dimethylphosphoryl)phenyl)tetrahydro-2H-pyran-4-carboxamide] |
| 4 | CC(C)(C)c1noc(C23CCC(CN(C(=O)C4CCS(=O)(=O)CC4)c4cccc(P(C)(C)=O)c4)(CC2)CC3)n1 [Example 47, N-((4-(3-(tert-butyl)-1,2,4-oxadiazol-5-yl)bicyclo[2.2.2]octan-1-yl)methyl)-N-(3-(dimethylphosphoryl)phenyl)tetrahydro-2H-thiopyran-4-carboxamide 1,1-dioxide] |
| 0.288 | CC(F)(F)c1ccc(C23CCC(CN(C(=O)C45CC(F)(C4)C5)c4cccc(Br)c4)(CC2)CC3)nc1 [Example 48, N-(3-bromophenyl)-N-((4-(5-(1,1-difluoroethyl)pyridin-2-yl)bicyclo[2.2.2]octan-1-yl)methyl)-3-fluorobicyclo[1.1.1]pentane-1-carboxamide] |
| 0.327 | CC(F)(F)c1ccc(C23CCC(CN(C(=O)C45CC(F)(C4)C5)c4cccc(C#N)c4)(CC2)CC3)nc1 [Example 49, N-(3-cyanophenyl)-N-((4-(5-(1,1-difluoroethyl)pyridin-2-yl)bicyclo[2.2.2]octan-1-yl)methyl)-3-fluorobicyclo[1.1.1]pentane-1-carboxamide] |
| 1.19 | CC(F)(F)c1ccc(C23CCC(CN(c4cccc(C#N)c4)C(=O)[C@H]4C[C@@](C)(O)C4)(CC2)CC3)nc1 [Example 50, (1S,3S)-N-(3-cyanophenyl)-N-((4-(5-(1,1-difluoroethyl)pyridin-2-yl)bicyclo[2.2.2]octan-1-yl)methyl)-3-hydroxy-3-methylcyclobutane-1-carboxamide] |
| 1.33 | CC(F)(F)c1ccc(C23CCC(CN(c4cccc(C#N)c4)C(=O)[C@H]4C[C@](O)(C(F)(F)F)C4)(CC2)CC3)nc1 [Example 51, (1S,3S)-N-(3-cyanophenyl)-N-((4-(5-(1,1-difluoroethyl)pyridin-2-yl)bicyclo[2.2.2]octan-1-yl)methyl)-3-hydroxy-3-(trifluoromethyl)cyclobutane-1-carboxamide] |
| 0.102 | CCOc1cccc(N(CC23CCC(c4nc(C5CC5)no4)(CC2)CC3)C(=O)C23CC(F)(C2)C3)c1 [Example 52, N-((4-(3-cyclopropyl-1,2,4-oxadiazol-5-yl)bicyclo[2.2.2]octan-1-yl)methyl)-N-(3-ethoxyphenyl)-3-fluorobicyclo[1.1.1]pentane-1-carboxamide] |
| 0.441 | CCOc1cccc(N(CC23CCC(c4nc(C5CC5)no4)(CC2)CC3)C(=O)C2CC(F)(F)C2)c1 [Example 53, N-((4-(3-cyclopropyl-1,2,4-oxadiazol-5-yl)bicyclo[2.2.2]octan-1-yl)methyl)-N-(3-ethoxyphenyl)-3,3-difluorocyclobutane-1-carboxamide] |
| 0.938 | CCOc1cccc(N(CC23CCC(c4nc(C5CC5)no4)(CC2)CC3)C(=O)[C@H]2C[C@](O)(C(F)(F)F)C2)c1 [Example 54, N-((4-(3-cyclopropyl-1,2,4-oxadiazol-5-yl)bicyclo[2.2.2]octan-1-yl)methyl)-N-(3-ethoxyphenyl)-3-hydroxy-3-(trifluoromethyl)cyclobutane-1-carboxamide] |
| 0.32 | CCOc1cccc(N(CC23CCC(c4nc(C5CC5)no4)(CC2)CC3)C(=O)C2CCOCC2)c1 [Example 55, N-((4-(3-cyclopropyl-1,2,4-oxadiazol-5-yl)bicyclo[2.2.2]octan-1-yl)methyl)-N-(3-ethoxyphenyl)tetrahydro-2H-pyran-4-carboxamide] |
| 4 | CCOc1cccc(N(CC23CCC(c4nc(C5CC5)no4)(CC2)CC3)C(=O)C2CCS(=O)(=O)CC2)c1 [Example 56, N-((4-(3-cyclopropyl-1,2,4-oxadiazol-5-yl)bicyclo[2.2.2]octan-1-yl)methyl)-N-(3-ethoxyphenyl)tetrahydro-2H-thiopyran-4-carboxamide 1,1-dioxide] |
| 0.304 | COc1cccc(N(CC23CCC(c4nc(C5CC5)no4)(CC2)CC3)C(=O)[C@H]2C[C@](O)(C(F)(F)F)C2)c1 [Example 57, (1S,3S)—N-((4-(3-cyclopropyl-1,2,4-oxadiazol-5-yl)bicyclo[2.2.2]octan-1-yl)methyl)-3-hydroxy-N-(3-methoxyphenyl)-3-(trifluoromethyl)cyclobutane-1-carboxamide] |
| 0.345 | COc1cccc(N(CC23CCC(c4nc(C5CC5)no4)(CC2)CC3)C(=O)C23CC(F)(C2)C3)c1 [Example 58, N-((4-(3-cyclopropyl-1,2,4-oxadiazol-5-yl)bicyclo[2.2.2]octan-1-yl)methyl)-3-fluoro-N-(3-methoxyphenyl)bicyclo[1.1.1]pentane-1-carboxamide] |
| 0.673 | COc1cccc(N(CC23CCC(c4nc(C5CC5)no4)(CC2)CC3)C(=O)C2CC(F)(F)C2)c1 [Example 59, N-((4-(3-cyclopropyl-1,2,4-oxadiazol-5-yl)bicyclo[2.2.2]octan-1-yl)methyl)-3,3-difluoro-N-(3-methoxyphenyl)cyclobutane-1-carboxamide] |
| 0.902 | COc1cccc(N(CC23CCC(c4nc(C5CC5)no4)(CC2)CC3)C(=O)C2CCOCC2)c1 [Example 60, N-((4-(3-cyclopropyl-1,2,4-oxadiazol-5-yl)bicyclo[2.2.2]octan-1-yl)methyl)-N-(3-methoxyphenyl)tetrahydro-2H-pyran-4-carboxamide] |
| 4 | COc1cccc(N(CC23CCC(c4nc(C5CC5)no4)(CC2)CC3)C(=O)C2CCS(=O)(=O)CC2)c1 [Example 61, N-((4-(3-cyclopropyl-1,2,4-oxadiazol-5-yl)bicyclo[2.2.2]octan-1-yl)methyl)-N-(3-methoxyphenyl)tetrahydro-2H-thiopyran-4-carboxamide 1,1-dioxide] |
